The results in this text go back to PubChem BioAssay (NCI).

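Each compound was tested at five concentrations against cells in 96-well plates for 48 hours. At the GI50, growth is halved. At the TGI there is no net growth.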 Bounds are passed on as bounds.

Some test systems named below: CAKI-1 renal; HCT-116 colon; LOX IMVI melanoma; NCI-H23 lung; SK-MEL-5 melanoma; SNB-75 CNS; T-47D breast; TK-10 renal; UACC-257 melanoma; UO-31 renal.
What all share (assay): NCI tumour cell line growth inhibition, 48 h

Consider `CCN1CCN(CC(=O)Nc2nc3ccc(NCc4ccc(C)cc4)cc3s2)CC1`, for which the GI50 was 3480 nM with CAKI-1 renal; 1530 nM with HCT-116 colon; 940 nM in the test with LOX IMVI melanoma; 5910 nM in the test on NCI-H23 lung; 975 nM in the test with SK-MEL-5 melanoma; 2690 nM with SNB-75 CNS. Besides, the GI50 in the test on T-47D breast was 1600 nM; in the test with TK-10 renal, 7540 nM; with UACC-257 melanoma, 3330 nM; in the test on UO-31 renal it was 2570 nM. Moreover, the TGI with CAKI-1 renal amounted to 10.5 µM; in the test with HCT-116 colon, 5.32 µM; in the test on LOX IMVI melanoma, 1.86 µM; in the test on NCI-H23 lung it was 13.9 µM; with SK-MEL-5 melanoma it was 2.01 µM; in the test with SNB-75 CNS it was 9.42 µM. The TGI with T-47D breast is 7.29 µM; in the test with TK-10 renal, 15.1 µM; with UACC-257 melanoma, 11.3 µM; in the test with UO-31 renal, 10.8 µM.

Consider `CCCCCCCCn1ccc2cc(NC(=O)Cn3cc(CN4CCC(C)CC4)nn3)ccc21`, for which the GI50 in the test on CAKI-1 renal was 1670 nM; in the test with HCT-116 colon it was 1570 nM; with LOX IMVI melanoma, 1640 nM; with NCI-H23 lung, 2040 nM; in the test on SK-MEL-5 melanoma, 1720 nM; in the test with SNB-75 CNS it was 1480 nM. Further, the GI50 with T-47D breast is 1760 nM; in the test on TK-10 renal, 1700 nM; in the test with UACC-257 melanoma, 1700 nM; in the test with UO-31 renal it was 1440 nM. Further, the TGI in the test on CAKI-1 renal worked out at 3.15 µM; in the test with HCT-116 colon it was 2.93 µM; with LOX IMVI melanoma, 3.05 µM; in the test with NCI-H23 lung, 4.34 µM; with SK-MEL-5 melanoma, 3.09 µM; in the test on SNB-75 CNS, 2.82 µM. Besides, the TGI in the test with T-47D breast came out at 4.08 µM; with TK-10 renal it was 3.21 µM; with UACC-257 melanoma, 3.35 µM; with UO-31 renal, 2.74 µM.

Regarding `COC(=O)c1c2c(c(C)[n+]([O-])c1C)C(=O)C=C(NCc1ccc(Br)cc1)C2=O`, the GI50 in the test with CAKI-1 renal is 59.7 nM; in the test with HCT-116 colon, 173 nM; in the test with LOX IMVI melanoma it was 70 nM; in the test on NCI-H23 lung, 721 nM; with SK-MEL-5 melanoma, 201 nM; in the test on SNB-75 CNS, 1580 nM. Also, the GI50 in the test on T-47D breast is 141 nM; with TK-10 renal, 2270 nM; with UACC-257 melanoma, 229 nM; in the test on UO-31 renal it was 1080 nM. The TGI was determined as 1.64 µM in the test on CAKI-1 renal; 0.667 µM with HCT-116 colon; 1.62 µM in the test with LOX IMVI melanoma; 3.32 µM in the test with NCI-H23 lung; 0.435 µM in the test with SK-MEL-5 melanoma; 2.94 µM in the test with SNB-75 CNS. For the same compound, the TGI came to 2.09 µM in the test with T-47D breast, 5.88 µM in the test with TK-10 renal, 0.907 µM with UACC-257 melanoma and 2.44 µM with UO-31 renal.

Consider `O=Cc1c[nH]c2ccc(-c3csc4ccccc34)cc12`, for which the GI50 is 1930 nM with CAKI-1 renal; 3600 nM in the test on HCT-116 colon; 3870 nM in the test with LOX IMVI melanoma; 18200 nM in the test with NCI-H23 lung; 3310 nM with SK-MEL-5 melanoma; 1250 nM in the test with SNB-75 CNS. Moreover, the GI50 in the test with T-47D breast was 9150 nM; with TK-10 renal, 3130 nM; with UACC-257 melanoma, 13200 nM; in the test with UO-31 renal, 8040 nM. Moreover, the TGI was > 100 µM in the test on CAKI-1 renal; > 100 µM in the test with HCT-116 colon; > 100 µM with LOX IMVI melanoma; > 100 µM with NCI-H23 lung; > 100 µM in the test on SK-MEL-5 melanoma; 5.88 µM in the test with SNB-75 CNS. Besides, the TGI in the test on T-47D breast is > 100 µM; in the test on TK-10 renal, 16.7 µM; with UACC-257 melanoma, > 100 µM; in the test with UO-31 renal, > 100 µM.

As for `CCCCCCCCCCCCNC(=O)[C@H]1CSC(c2cc(Br)cs2)N1` (stereo not given in full), the GI50 with CAKI-1 renal was 971 nM; with HCT-116 colon, 909 nM; with LOX IMVI melanoma it was 797 nM; in the test on NCI-H23 lung it was 1530 nM; in the test with SK-MEL-5 melanoma it was 5570 nM; with SNB-75 CNS, 851 nM. Further, the GI50 in the test on T-47D breast was 1980 nM; in the test with TK-10 renal, 951 nM; with UACC-257 melanoma, 1240 nM; in the test on UO-31 renal it was 979 nM. Further, the TGI in the test on CAKI-1 renal was 2.04 µM; in the test on HCT-116 colon it was 1.74 µM; in the test on LOX IMVI melanoma, 1.56 µM; in the test with NCI-H23 lung, 5.11 µM; in the test with SK-MEL-5 melanoma, 11.8 µM; in the test with SNB-75 CNS it was 1.56 µM. Moreover, the TGI with T-47D breast is 8.66 µM; in the test on TK-10 renal it was 1.82 µM; in the test with UACC-257 melanoma, 3 µM; in the test with UO-31 renal, 2.42 µM.

With `Cc1ccc2nc3sc(=O)sc3nc2c1`, the TGI is 30 µM in the test with CAKI-1 renal; 30.9 µM in the test with HCT-116 colon; 28.2 µM in the test on LOX IMVI melanoma; 42.5 µM in the test on NCI-H23 lung; 29.1 µM with SK-MEL-5 melanoma; 64.8 µM in the test on SNB-75 CNS. The TGI was > 100 µM in the test on T-47D breast, 30 µM in the test with TK-10 renal, 32.1 µM in the test on UACC-257 melanoma and 28.9 µM in the test with UO-31 renal.

Consider `COc1cc(-c2ccc(Nc3ccccc3C(=O)O)c(OC)c2)ccc1Nc1ccccc1C(=O)O`, for which the TGI in the test on CAKI-1 renal was > 71.1 µM; in the test with HCT-116 colon, 23.6 µM; in the test on LOX IMVI melanoma, 30.9 µM; with NCI-H23 lung it was 71 µM; in the test on SK-MEL-5 melanoma, > 100 µM; with SNB-75 CNS it was 91.3 µM. In addition, the TGI in the test with T-47D breast was > 65.7 µM; with TK-10 renal, > 89 µM; with UACC-257 melanoma, > 100 µM; with UO-31 renal, > 58.9 µM.

Consider `CC(=O)Nc1c(I)c(C(=O)O)c(I)c(N(C)C(C)=O)c1I`, for which the GI50 in the test with CAKI-1 renal, in the test on HCT-116 colon, in the test on LOX IMVI melanoma, with NCI-H23 lung, in the test with SK-MEL-5 melanoma and with SNB-75 CNS was > 100000 nM in each case. In addition, the GI50 in the test with T-47D breast, in the test with TK-10 renal, in the test on UACC-257 melanoma and with UO-31 renal was > 100000 nM in each case. Moreover, the TGI in the test with CAKI-1 renal, with HCT-116 colon, in the test with LOX IMVI melanoma, in the test with NCI-H23 lung, in the test on SK-MEL-5 melanoma and in the test on SNB-75 CNS was > 100 µM in each case. Further, the TGI with T-47D breast, with TK-10 renal, in the test on UACC-257 melanoma and in the test on UO-31 renal was > 100 µM throughout.
